Experiments:
Parameters in all cases: scale not given: the % may be the effect or the level left
[1] = molecular target: Dual specificity protein kinase CLK4 (Homo sapiens) (UniProt Q9HAZ1); experiment: Inhibition of human CLK4 assessed as enzyme activity at 1 uM using myelin basic protein as substrate preincubated for 20 mins followed by [gamma-33P]-ATP addition and measured after 120 mins by radiometric Hot-SpotSM Kinase assay relative to control
[2] = molecular target: Serine/threonine-protein kinase Nek4 (Homo sapiens) (UniProt P51957); experiment: Inhibition of human NEK4 assessed as enzyme activity at 1 uM using myelin basic protein as substrate preincubated for 20 mins followed by [gamma-33P]-ATP addition and measured after 120 mins by radiometric Hot-SpotSM Kinase assay relative to control
Sequence of Serine/threonine-protein kinase Nek4 (Homo sapiens) (P51957 whole entry, looked up): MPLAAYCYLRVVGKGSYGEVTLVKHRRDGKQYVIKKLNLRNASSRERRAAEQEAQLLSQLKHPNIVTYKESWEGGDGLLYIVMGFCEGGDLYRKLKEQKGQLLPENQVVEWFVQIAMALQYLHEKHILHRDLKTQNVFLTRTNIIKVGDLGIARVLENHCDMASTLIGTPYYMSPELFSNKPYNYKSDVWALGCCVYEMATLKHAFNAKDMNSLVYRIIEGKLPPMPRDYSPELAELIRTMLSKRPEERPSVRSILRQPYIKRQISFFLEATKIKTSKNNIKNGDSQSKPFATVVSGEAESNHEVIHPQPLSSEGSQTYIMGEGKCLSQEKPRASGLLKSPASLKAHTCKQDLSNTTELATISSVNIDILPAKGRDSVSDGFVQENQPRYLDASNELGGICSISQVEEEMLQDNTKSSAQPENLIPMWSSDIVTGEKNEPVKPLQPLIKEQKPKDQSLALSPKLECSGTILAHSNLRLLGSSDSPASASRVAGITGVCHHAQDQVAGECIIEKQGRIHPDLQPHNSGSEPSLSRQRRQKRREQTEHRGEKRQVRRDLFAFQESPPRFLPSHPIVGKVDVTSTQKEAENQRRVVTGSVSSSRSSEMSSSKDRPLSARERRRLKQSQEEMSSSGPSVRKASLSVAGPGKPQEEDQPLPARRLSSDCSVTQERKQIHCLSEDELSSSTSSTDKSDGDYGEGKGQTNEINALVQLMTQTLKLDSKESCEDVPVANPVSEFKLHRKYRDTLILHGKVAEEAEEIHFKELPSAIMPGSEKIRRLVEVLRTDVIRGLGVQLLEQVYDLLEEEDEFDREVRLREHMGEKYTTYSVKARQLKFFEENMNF

[3] = molecular target: Serine/threonine-protein kinase WNK3 (Homo sapiens) (UniProt Q9BYP7); experiment: Inhibition of human WNK3 assessed as enzyme activity at 1 uM using myelin basic protein as substrate preincubated for 20 mins followed by [gamma-33P]-ATP addition and measured after 120 mins by radiometric Hot-SpotSM Kinase assay relative to control
Sequence of Serine/threonine-protein kinase WNK3 (Homo sapiens) (Q9BYP7 whole entry): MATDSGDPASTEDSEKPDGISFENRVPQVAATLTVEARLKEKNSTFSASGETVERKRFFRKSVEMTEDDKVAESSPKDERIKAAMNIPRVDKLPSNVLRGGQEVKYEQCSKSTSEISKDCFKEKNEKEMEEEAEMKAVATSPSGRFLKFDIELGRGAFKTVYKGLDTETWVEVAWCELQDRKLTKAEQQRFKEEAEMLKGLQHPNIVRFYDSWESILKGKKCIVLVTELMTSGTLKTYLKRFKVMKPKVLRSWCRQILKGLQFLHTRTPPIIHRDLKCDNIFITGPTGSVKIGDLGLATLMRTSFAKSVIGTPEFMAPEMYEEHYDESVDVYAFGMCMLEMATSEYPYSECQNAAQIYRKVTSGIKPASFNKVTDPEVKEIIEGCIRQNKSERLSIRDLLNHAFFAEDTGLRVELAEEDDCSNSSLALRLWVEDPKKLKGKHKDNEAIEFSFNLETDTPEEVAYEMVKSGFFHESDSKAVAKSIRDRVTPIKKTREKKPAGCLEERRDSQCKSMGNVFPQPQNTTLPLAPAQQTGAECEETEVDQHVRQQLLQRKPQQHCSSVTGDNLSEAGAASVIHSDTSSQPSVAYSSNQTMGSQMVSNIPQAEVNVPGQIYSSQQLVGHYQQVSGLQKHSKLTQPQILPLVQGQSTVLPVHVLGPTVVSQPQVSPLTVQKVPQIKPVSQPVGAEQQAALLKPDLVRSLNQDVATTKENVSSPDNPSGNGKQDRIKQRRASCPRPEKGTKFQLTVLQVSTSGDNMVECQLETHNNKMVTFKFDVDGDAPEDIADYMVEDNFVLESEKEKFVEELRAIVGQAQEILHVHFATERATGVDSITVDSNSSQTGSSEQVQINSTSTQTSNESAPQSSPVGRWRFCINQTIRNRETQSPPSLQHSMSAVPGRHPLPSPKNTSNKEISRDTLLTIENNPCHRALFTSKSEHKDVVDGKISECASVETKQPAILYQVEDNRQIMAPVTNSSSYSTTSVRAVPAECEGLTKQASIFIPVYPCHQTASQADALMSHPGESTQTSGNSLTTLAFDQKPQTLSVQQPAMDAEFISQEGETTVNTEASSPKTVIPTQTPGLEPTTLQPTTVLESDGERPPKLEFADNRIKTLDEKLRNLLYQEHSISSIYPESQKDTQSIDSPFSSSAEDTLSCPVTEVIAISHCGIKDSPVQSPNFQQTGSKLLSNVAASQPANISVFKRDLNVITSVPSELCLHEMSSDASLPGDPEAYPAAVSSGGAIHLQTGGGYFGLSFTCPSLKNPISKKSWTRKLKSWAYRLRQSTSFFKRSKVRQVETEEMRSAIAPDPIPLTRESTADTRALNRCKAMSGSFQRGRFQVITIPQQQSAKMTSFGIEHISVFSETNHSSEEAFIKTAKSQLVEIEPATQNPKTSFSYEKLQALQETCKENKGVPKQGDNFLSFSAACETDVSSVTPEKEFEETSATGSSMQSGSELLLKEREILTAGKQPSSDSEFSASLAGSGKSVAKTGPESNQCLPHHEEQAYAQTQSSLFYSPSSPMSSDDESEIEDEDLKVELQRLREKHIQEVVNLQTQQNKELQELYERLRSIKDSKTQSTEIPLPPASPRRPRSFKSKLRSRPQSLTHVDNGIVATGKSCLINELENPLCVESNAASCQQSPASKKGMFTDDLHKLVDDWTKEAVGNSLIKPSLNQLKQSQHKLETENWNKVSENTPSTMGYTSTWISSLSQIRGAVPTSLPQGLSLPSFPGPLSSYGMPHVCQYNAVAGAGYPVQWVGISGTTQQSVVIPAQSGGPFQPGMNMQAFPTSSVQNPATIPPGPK

[4] = molecular target: T1, 3-phosphoinositide-dependent protein kinase 1 (Homo sapiens) (UniProt O15530); experiment: Inhibition of human PDK1 assessed as enzyme activity at 1 uM using KTFCGTPEYLAPEVRREPRILSEEEQEMFRDFDYIADWC as substrate preincubated for 20 mins followed by [gamma-33P]-ATP addition and measured after 120 mins by radiometric Hot-SpotSM Kinase assay relative to control
T1 sequence (whole entry): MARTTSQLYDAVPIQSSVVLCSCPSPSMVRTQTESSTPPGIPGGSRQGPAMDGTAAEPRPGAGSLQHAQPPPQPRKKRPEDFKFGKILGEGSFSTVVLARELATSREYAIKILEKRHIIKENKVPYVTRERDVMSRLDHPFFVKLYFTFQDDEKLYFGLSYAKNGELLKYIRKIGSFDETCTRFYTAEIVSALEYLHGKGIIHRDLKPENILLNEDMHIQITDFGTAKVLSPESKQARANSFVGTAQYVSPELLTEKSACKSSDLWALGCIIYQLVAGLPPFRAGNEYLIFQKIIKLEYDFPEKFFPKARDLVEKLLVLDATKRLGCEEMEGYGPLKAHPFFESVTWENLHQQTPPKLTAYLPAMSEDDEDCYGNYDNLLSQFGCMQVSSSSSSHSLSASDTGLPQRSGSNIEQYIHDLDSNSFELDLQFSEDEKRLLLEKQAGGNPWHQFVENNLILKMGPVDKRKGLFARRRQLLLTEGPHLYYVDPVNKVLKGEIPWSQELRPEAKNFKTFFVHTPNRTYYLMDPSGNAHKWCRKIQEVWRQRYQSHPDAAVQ

[5] = molecular target: Vascular endothelial growth factor receptor 2 (Homo sapiens) (UniProt P35968); experiment: Inhibition of human KDR assessed as enzyme activity at 1 uM using poly[Glu:Tyr] (4:1) as substrate preincubated for 20 mins followed by [gamma-33P]-ATP addition and measured after 120 mins by radiometric Hot-SpotSM Kinase assay relative to control
Sequence of Vascular endothelial growth factor receptor 2 (Homo sapiens) (P35968 whole entry): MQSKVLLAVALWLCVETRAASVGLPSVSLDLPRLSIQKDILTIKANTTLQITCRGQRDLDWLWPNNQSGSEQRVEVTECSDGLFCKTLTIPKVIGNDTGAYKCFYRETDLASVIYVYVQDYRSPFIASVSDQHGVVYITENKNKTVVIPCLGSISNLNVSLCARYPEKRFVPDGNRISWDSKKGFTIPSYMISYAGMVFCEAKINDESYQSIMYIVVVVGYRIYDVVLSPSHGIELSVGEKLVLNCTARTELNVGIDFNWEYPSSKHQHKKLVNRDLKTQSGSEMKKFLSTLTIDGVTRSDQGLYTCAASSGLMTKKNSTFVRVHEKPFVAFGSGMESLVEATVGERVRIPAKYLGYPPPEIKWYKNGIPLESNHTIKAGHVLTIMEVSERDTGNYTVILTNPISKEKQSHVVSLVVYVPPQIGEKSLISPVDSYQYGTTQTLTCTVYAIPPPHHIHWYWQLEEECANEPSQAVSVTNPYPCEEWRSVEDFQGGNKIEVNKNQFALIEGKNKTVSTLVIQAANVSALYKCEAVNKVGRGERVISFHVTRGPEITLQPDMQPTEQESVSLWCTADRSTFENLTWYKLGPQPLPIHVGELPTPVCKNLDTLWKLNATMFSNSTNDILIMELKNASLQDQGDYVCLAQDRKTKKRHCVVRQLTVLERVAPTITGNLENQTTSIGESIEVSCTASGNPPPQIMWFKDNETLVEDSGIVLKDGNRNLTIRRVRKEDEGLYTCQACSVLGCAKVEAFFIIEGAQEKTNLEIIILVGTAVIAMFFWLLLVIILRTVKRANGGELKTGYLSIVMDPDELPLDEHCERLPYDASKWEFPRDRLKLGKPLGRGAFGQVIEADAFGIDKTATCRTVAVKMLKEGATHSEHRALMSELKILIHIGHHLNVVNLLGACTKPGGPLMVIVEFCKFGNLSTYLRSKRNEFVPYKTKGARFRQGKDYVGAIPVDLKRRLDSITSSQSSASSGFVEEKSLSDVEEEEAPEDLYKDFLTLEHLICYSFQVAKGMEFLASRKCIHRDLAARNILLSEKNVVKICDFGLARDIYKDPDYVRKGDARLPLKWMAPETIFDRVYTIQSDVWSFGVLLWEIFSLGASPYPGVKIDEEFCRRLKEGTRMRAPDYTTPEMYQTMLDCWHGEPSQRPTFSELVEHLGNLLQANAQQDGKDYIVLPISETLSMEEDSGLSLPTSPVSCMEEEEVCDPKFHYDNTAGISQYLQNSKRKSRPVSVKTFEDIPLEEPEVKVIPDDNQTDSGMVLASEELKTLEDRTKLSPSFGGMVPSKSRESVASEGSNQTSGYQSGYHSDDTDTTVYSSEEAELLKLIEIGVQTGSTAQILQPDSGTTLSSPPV

[6] = molecular target: T2, Dual specificity mitogen-activated protein kinase kinase 5 (Homo sapiens) (UniProt Q13163); experiment: Inhibition of human MEK5 assessed as enzyme activity at 1 uM using ERK5 (K84R) as substrate preincubated for 20 mins followed by [gamma-33P]-ATP addition and measured after 120 mins by radiometric Hot-SpotSM Kinase assay relative to control
T2 sequence (whole entry): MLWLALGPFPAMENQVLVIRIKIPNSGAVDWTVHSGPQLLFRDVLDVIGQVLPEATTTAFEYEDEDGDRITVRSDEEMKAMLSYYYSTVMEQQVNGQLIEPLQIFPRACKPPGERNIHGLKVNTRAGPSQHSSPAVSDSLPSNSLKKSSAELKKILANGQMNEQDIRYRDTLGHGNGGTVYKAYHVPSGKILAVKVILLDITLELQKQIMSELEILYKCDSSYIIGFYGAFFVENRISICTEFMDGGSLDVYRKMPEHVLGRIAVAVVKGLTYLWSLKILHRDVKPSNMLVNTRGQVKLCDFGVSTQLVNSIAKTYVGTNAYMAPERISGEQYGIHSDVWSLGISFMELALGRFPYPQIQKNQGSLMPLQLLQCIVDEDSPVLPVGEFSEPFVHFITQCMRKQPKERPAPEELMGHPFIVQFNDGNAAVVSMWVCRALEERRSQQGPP

[7] = molecular target: T3, NUAK family SNF1-like kinase 1 (Homo sapiens) (UniProt O60285); experiment: Inhibition of human ARK5 assessed as enzyme activity at 1 uM using KKKVSRSGLYRSPSMPENLNRPR as substrate preincubated for 20 mins followed by [gamma-33P]-ATP addition and measured after 120 mins by radiometric Hot-SpotSM Kinase assay relative to control
T3 sequence (whole entry): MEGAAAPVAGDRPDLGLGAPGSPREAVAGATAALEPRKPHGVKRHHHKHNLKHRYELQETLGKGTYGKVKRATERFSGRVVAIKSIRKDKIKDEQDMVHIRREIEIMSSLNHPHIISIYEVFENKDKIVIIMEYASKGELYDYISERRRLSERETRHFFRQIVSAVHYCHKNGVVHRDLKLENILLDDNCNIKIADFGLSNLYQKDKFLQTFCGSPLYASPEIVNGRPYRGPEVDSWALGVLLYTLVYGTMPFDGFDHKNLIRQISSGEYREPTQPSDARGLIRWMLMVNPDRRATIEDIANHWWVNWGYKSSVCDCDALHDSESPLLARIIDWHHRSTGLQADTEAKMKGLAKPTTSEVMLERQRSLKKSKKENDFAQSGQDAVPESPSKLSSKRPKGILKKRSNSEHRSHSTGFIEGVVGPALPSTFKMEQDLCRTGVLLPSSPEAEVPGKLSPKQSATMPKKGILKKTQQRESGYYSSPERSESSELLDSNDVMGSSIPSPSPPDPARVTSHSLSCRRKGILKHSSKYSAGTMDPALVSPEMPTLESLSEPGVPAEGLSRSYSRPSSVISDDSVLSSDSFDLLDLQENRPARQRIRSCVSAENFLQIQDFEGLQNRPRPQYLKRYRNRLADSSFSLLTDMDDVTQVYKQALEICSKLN

[8] = molecular target: Cyclin-dependent kinase 5/CDK5 activator 1 (Homo sapiens) (UniProt Q00535+Q15078); experiment: Inhibition of human CDK5/p25 assessed as enzyme activity at 1 uM using RB Protein as substrate preincubated for 20 mins followed by [gamma-33P]-ATP addition and measured after 120 mins by radiometric Hot-SpotSM Kinase assay relative to control; type: protein-complex assay
Sequence of Cyclin-dependent kinase 5/CDK5 activator 1 (Homo sapiens) (Q00535 whole entry): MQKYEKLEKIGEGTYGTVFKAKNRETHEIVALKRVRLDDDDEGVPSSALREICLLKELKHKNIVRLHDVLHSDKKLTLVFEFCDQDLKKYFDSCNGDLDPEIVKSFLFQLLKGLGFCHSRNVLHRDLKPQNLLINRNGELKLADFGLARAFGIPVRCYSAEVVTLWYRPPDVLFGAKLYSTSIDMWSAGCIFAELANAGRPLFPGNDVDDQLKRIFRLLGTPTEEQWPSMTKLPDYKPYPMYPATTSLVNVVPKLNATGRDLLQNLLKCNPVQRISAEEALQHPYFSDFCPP
Sequence of Cyclin-dependent kinase 5/CDK5 activator 1 (Homo sapiens) (Q15078 99-307 partner limits assumed): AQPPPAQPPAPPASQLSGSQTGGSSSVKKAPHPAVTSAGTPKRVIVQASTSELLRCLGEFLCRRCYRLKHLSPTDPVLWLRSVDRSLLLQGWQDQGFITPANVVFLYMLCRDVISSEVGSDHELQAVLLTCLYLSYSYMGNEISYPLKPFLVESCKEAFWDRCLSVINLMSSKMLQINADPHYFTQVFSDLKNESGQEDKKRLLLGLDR

Sequence of Dual specificity protein kinase CLK4 (Homo sapiens) (Q9HAZ1 whole entry, looked up): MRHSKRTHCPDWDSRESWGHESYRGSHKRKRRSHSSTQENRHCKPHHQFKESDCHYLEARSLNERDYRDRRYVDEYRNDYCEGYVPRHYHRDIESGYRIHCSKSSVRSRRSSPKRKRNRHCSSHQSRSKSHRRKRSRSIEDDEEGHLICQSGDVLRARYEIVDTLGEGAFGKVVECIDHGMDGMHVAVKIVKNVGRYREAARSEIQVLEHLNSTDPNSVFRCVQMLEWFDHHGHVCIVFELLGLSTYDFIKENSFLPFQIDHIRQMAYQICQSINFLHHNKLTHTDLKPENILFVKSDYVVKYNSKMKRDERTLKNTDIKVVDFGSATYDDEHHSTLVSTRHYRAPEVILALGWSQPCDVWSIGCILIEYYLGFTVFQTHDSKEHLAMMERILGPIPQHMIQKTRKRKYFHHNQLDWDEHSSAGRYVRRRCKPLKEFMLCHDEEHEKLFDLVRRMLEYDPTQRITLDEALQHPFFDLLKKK

SMILES | Activity [1] | Activity [2] | Activity [3] | Activity [4] | Activity [5] | Activity [6] | Activity [7] | Activity [8]
CC[C@H](Nc1ncnc2[nH]cnc12)c1nc2cccc(F)c2c(=O)n1-c1ccccc1 | 103% | 95.5% | 86.4% | 94.6% | 97.7% | 104% | 102% | 99.8%
CC(C)Oc1ccc(-c2nn([C@@H](C)c3oc4ccc(F)cc4c(=O)c3-c3cccc(F)c3)c3ncnc(N)c23)cc1F [UMBRALISIB] | 116% | 87.8% | 82.7% | 92.8% | 101% | 102% | 97.8% | 90.3%
C[C@H](Nc1ncnc2nc[nH]c12)c1cc2cccc(Cl)c2c(=O)n1-c1ccccc1 | 107% | 92.2% | 86.8% | 94.6% | 95.9% | 105% | 95% | 92.7%

Reference: ChEMBL document CHEMBL5715954, “Silencing c-Myc translation as a therapeutic strategy through targeting PI3Kδ and CK1ε in hematological malignancies” (Blood, 2017)
